Measured values from US10155817B2, “Dual-target antibody targeting VEGFR-2 and DLL4 and pharmaceutical composition including same” (PharmAbcine Inc., priority 2012, dated 2018).

B1: Notch-1 Fc: Notch-1 Fc protein used as comparator for binding to hDLL4 (protein)
chain: ARGPRCSQPGETCLNGGKCEAANGTEACVCGGAFVGPRCQDPNPCLSTPCKNAGTCHVVDRRGVADYACSCALGFSGPLCLTPLDNACLTNPCRNGGTCDLLTLTEYKCRCPPGWSGKSCQQADPCASNPCANGGQCLPFEASYICHCPPSFHGPTCRQDVNECGQKPGLCRHGGTCHNEVGSYRCVCRATHTGPNCERPYVPCSPSPCQNGGTCRPTGDVTHECACLPGFTGQNCEENIDDCPGNNCKNGGACVDGVNTYNCRCPPEWTGQYCTEDVDECQLMPNACQNGGTCHNTHGGYNCVCVNGWTGEDCSENIDDCASAACFHGATCHDRVASFYCECPHGRTGLLCHLNDACISNPCNEGSNCDTNPVNGKAICTCPSGYTGPACSQDVDECSLGANPCEHAGKCINTLGSFECQCLQGYTGPRCEIDVNECVSNPCQNDATCLDQIGEFQCICMPGYEGVHCEVNTDECASSPCLHNGRCLDKINEFQCECPTGFTGHLCQ
modifications: left off: a dimerising Fc or GST

Experiments:
[1] = tested on: Notch-1; assay: Promoter activity by Notch-1, luciferase reporter in LS174T cells co-cultured with 293-hDLL4; assay type: cell-based, human; conditions: antibody 20 mg/ml, DAPT 5 mM, co-culture with 293-hDLL4 24 hours, luminescence, versus untreated antibody group, FIG. 9
Description: 1×10^5 LS174T cells (colon cancer cell line; ATCC, CL-188™) were incubated in RPMI medium containing 10% of fetal calf serum for 24 hours, and 0.8 μg of Notch Cignal reporter DNA contained in Cignal Reporter Assay Kit (#336841 CCS-014L, QIAGEN) and 2 μl of lipofectamine (#11668-500; Invitrogen) were mixed with 100 μl of opti-MEM media and allowed to stand for 20 minutes, and then 400 μl of opti-MEM was added for transfection to incubate cells for 6 hours. After 6 hours, the medium was replaced with an MEM medium containing 10% fetal calf serum, and incubated overnight. Next day, Tanibirumab and PMC-201 (each of 20 mg/ml) were mixed and pre-treated in 1×10^5 of 293-hDLL4 cells for 1 hour, then co-cultured with LS174T cells transfected with Notch Cignal reporter DNA for 24 hours. DAPT (5 mM) was not pre-treated and 293-hDLL4 cell was mixed with the transfected LS174T cells, and co-cultured for 24 hours.
After co-culture for 24 hours, cells were lyzed by using a lysis buffer contained in Dual-Luciferase Reporter Assay System (Cat. # E1910; Promega), and a substrate and ATP were mixed with each other, and then luminescence amount was measured by using Luminometer.

[2] = target: T1, human DLL4 (Homo sapiens, UniProt Q9NR61); assay: Biacore affinity analysis to human DLL4; assay type: binding; conditions: BIACORE 3000, CM5 chip, sample immobilized, DLL4 4.9-312.5 nM as antigen, FIG. 5
T1 construct: expressed in transfected cells; host or cells: 293 cells stably transfected with pcDNA-hDLL4 (293-DLL4 pool; clone 293-hDLL4)
Description: In order to calculate Kd (dissociation constant) of PMC-201 to human DLL4, BIACORE® 3000 (GE Healthcare) was used, and CM5 chip was used. The dissociation constant is similar to Km value, and is used as an affinity index of an enzyme to a substrate in an enzyme-substrate complex. The affinity between the enzyme and the substrate is increased as the dissociation constant is decreased.
The sample was immobilized by using 400 mM EDC (N-ethyl-N′-(dimethylaminopropyl) Carbodiimide), 100 mM NHS (N-Hydroxysuccinimide), and 1M ethanolamine hydrochloride (pH 8.5) that are an Amine Coupling Kit (GE Healthcare), and 20 mM sodium hydroxide as a generation buffer, and 1×PBS as an immobilization buffer were diluted, and then the analysis sample was 1:40 diluted in 10 mM acetate (pH 5.0) (GE Healthcare). The sample was immobilized at 4000RU (Response Unit). A buffer for measuring adsorption of the analysis sample was a HBS-EP buffer (GE Healthcare). DLL4s having measurement concentrations of 4.9, 9.7, 19.5, 39.1, 78.1, 156.3, 312.5 nM as an antigen were serial-diluted so as to have a final volume of 200 μl by using an HBS-EP buffer. Five concentrations of seven concentrations were selected and fitted. […] Affinity of the analysis sample was measured under conditions in which an analysis flow rate was 30 μl/min, a binding section was 60 seconds, and a dissociation was 300 seconds.

T1 sequence (Q9NR61 27-685): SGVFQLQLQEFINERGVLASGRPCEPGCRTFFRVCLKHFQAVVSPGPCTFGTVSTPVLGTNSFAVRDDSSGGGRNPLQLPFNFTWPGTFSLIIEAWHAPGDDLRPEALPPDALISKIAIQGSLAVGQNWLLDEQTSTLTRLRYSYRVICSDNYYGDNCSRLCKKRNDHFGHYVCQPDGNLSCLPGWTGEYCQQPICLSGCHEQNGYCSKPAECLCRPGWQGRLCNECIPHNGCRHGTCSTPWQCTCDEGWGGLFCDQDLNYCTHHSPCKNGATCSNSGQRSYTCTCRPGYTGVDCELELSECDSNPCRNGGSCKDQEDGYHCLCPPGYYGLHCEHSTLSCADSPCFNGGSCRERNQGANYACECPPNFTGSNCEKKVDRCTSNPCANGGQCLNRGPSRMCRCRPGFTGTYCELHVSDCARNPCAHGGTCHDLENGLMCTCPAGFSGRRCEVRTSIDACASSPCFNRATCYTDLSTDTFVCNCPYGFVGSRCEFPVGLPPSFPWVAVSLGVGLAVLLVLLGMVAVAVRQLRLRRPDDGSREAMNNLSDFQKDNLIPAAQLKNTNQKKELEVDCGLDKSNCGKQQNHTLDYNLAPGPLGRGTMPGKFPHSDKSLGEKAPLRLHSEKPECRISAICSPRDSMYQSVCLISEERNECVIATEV

Molecule	promoter activation of NICD exhibited by Notch-1 activation of LS174T cells [1]	affinity (Kd, dissociation constant) to human DLL4 [2]
C[C@H](NC(=O)Cc1cc(F)cc(F)c1)C(=O)N[C@H](C(=O)OC(C)(C)C)c1ccccc1 [DAPT, N—[N-(3,5-Difluorophenacetyl)-L-alanyl]-S-phenylglycine t-butyl ester]	decreased	–
B1	–	affinity was confirmed
